The target of the assay is SWI/SNF-related matrix-associated actin-dependent regulator of chromatin subfamily A member 2 (Homo sapiens, UniProt P51531). As to the kind of experiment: Inhibition of N-terminal hexa-histidine-tagged truncated human SMARCA2 (470 to 1590 residues) extracted from Sf9 insect cells using poly(dA-dT) linear dsDNA as substrate preincubated for 30 mins followed by substrate/ATP addition measured after 180 mins by ADP-Glo assay. Format: cell-free. (In general: ADP-Glo turns the ADP formed in a reaction into a luminescent signal.)
Chain of SWI/SNF-related matrix-associated actin-dependent regulator of chromatin subfamily A member 2 (P51531 whole entry, the tested form may be a part): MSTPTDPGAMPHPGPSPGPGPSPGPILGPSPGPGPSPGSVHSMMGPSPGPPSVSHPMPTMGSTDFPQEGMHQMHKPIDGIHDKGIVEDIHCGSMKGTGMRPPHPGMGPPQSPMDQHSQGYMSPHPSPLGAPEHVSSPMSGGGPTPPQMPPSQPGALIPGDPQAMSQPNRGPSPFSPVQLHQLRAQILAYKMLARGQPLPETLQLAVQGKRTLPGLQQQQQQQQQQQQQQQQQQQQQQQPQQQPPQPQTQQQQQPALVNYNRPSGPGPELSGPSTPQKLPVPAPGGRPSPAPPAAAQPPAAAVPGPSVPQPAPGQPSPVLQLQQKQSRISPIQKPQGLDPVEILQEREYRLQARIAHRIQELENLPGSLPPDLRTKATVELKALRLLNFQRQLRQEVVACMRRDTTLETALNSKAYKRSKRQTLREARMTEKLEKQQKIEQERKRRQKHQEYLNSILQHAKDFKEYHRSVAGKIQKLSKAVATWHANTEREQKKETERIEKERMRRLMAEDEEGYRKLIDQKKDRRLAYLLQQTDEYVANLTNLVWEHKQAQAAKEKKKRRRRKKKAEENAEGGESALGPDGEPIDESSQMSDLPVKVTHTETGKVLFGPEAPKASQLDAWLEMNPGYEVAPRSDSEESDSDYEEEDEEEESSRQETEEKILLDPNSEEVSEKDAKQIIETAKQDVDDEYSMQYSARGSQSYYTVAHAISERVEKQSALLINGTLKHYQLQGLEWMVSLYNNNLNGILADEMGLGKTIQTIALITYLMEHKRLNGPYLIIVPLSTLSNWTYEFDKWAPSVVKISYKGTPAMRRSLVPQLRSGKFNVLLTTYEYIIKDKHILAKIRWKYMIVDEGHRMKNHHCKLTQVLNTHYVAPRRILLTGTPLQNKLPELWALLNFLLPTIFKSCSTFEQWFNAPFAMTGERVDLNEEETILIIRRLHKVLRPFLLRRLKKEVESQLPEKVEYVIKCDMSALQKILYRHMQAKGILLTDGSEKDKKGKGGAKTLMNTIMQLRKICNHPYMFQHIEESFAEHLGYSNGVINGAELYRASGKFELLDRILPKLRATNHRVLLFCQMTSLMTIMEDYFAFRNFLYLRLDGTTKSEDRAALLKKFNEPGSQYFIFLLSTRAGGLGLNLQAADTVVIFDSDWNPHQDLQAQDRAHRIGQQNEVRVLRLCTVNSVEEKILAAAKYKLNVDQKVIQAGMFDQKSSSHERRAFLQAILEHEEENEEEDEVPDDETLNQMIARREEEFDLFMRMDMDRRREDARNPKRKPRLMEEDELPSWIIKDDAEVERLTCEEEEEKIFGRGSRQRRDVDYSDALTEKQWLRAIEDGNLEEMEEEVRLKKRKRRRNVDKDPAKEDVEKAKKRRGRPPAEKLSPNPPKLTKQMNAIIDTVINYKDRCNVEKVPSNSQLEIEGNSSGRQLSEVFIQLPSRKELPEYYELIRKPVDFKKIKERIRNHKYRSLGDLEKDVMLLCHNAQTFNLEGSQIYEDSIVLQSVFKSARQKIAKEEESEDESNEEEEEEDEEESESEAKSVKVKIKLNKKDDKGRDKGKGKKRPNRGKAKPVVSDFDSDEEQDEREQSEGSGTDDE

For `CCS(=O)(=O)N1CCc2ccc(C(=O)NCc3cc4nc(-c5cccc(N6C[C@@H](C)O[C@@H](C)C6)n5)ccc4cn3)cc21`, the midpoint of inhibition, the IC50, lay at 3.6 nM.

The compound `C[C@@H]1CN(c2cccc(-c3ccc4cnc(CNC(=O)c5cc(Cl)c6c(c5)N(S(C)(=O)=O)CC6)cc4n3)n2)C[C@H](C)O1` had an IC50 of 2.27 nM. `C=CCS(=O)(=O)N1CCc2ccc(C(=O)NCc3cc4nc(-c5cccc(N6C[C@@H](C)O[C@@H](C)C6)n5)ccc4cn3)cc21` came in with an IC50 of 8.14 nM.

Usually IC50 stands for the concentration needed to halve the response being measured. A higher IC50 goes with a need for much substance.
